US8153787B2 (priority 2005, dated 2012)
Values after ≈ are worked out from the molar mass of the structure shown. Like-named read-outs stand apart in the source and are kept apart here.

Tests used:
Vaccinia virus = experiment: organism not typed; format: cell-based; settings: HEL
[1] = test system: herpes simplex virus type 2 (HSV-2); experiment: microbe, parasite or virus in culture; format: cell-based; settings: Human alphaherpesvirus 2, HEL, read-out: EC50 HSV-2 (G strain)
murine polyomavirus = experiment: microbe, parasite or virus in culture; format: cell-based; settings: for EC50: Alphapolyomavirus muris, UC1, UC1B
Cowpox virus (Brighton) = experiment: microbe, parasite or virus in culture; format: cell-based; settings: Cowpox virus, HEL, read-out: EC50 Cowpox virus Brighton
[2] = test system: primate polyomavirus (SV40); experiment: microbe, parasite or virus in culture; format: cell-based, simian polyomavirus SV40; settings: for EC50: Polyomavirus sp., BSC-1, in Primates
in vitro [3] = settings: human, […]
[4] = test system: herpes simplex virus type 1 (HSV-1); experiment: microbe, parasite or virus in culture; format: cell-based; settings: Human alphaherpesvirus 1, HEL, read-out: EC50 HSV-1 (Kos strain)
[5] = test system: Varicella-Zoster Virus (VZV); experiment: microbe, parasite or virus in culture; format: cell-based; settings: Human alphaherpesvirus 3, HEL
in vitro [6] = settings: African green monkey
[7] = test system: Human Cytomegalovirus (HCMV); experiment: microbe, parasite or virus in culture; format: cell-based
in vitro [8] = settings: mouse
Orf virus (NZ2) = experiment: microbe, parasite or virus in culture; format: cell-based; settings: Orf virus, HEL, read-out: EC50 Orf virus NZ2
HSV-1 (Kos strain) = experiment: microbe, parasite or virus in culture; format: cell-based, Herpes simplex virus type 1; settings: Human alphaherpesvirus 1, HEL
in vitro [9] = settings: human
HSB-2 cells = settings: human
[10] = test system: Molluscum contagiosum virus (MCV) clinical isolates; experiment: microbe, parasite or virus in culture; format: cell-based; settings: Keratinocyte
MOLT-3 cells = settings: human
[11] = test system: Vaccinia virus (Western Reserve) and recombinant viruses harboring the A314T, A684V or A314T+A684V mutations; format: cell-based
HEL cells = settings: human
[12] = test system: vaccinia virus (Lederle strain); experiment: microbe, parasite or virus in culture; format: cell-based; settings: Orthopoxvirus vaccinia, HEL
[13] = read-out: EC50 Vaccinia Virus Lister
[14] = Orthopoxvirus vaccinia, read-out: EC50 Vaccinia Virus Copenhagen
[15] = Orthopoxvirus vaccinia, read-out: EC50 Vaccinia Virus Lederle
[16] = Orthopoxvirus vaccinia, read-out: EC50 Vaccinia Virus WR
[17] = read-out: antiviral activity (EC50) 2PTA2
[18] = read-out: antiviral activity (EC50) LID-1
[19] = read-out: antiviral activity (EC50) MN/RDE Toronto
[20] = read-out: antiviral activity (EC50) PTA
[21] = read-out: antiviral activity (EC50) SV40 PML-1 strain EK
[22] = read-out: antiviral activity (EC50) SV40 PML-2 strain DAR
[23] = read-out: antiviral activity (EC50) SV40 strain A2895
[24] = read-out: EC50 VZV 07/1 strain (HEL cells)
[25] = read-out: EC50 VZV OKA strain (HEL cells)
[26] = Human betaherpesvirus 5, AD169, HEL, read-out: EC50 HCMV AD-169 strain (HEL cells)
[27] = Human betaherpesvirus 5, HEL, read-out: EC50 HCMV Davis strain (HEL cells)
[28] = read-out: EC50 VZV YS strain (HEL cells)
[29] = read-out: EC50 VZV YS-R strain (HEL cells)

SMILES: Nc1ncn(C[C@H]2COP(=O)(O)CO2)c(=O)n1 [Compound 11, 1-{[(5S)-2-Hydroxy-2-oxido-1,4,2-dioxaphosphinan-5-yl]methyl}-5-azacytosine]
- EC50 (Vaccinia virus; [13]): 1.38 µg/mL (≈ 5.26 µM)
- EC50 (Vaccinia virus; [14]): 1.76 µg/mL (≈ 6.71 µM)
- EC50 (Vaccinia virus; [15]): 3.1 µg/mL (≈ 11.8 µM)
- EC50 (Vaccinia virus; [16]): 2.08 µg/mL (≈ 7.93 µM)
- EC50 [1]: 0.58 µg/mL (≈ 2.21 µM)
- selectivity index 2PTA2 (murine polyomavirus): 13
- selectivity index LID-1 (murine polyomavirus): 7
- selectivity index MN/RDE Toronto (murine polyomavirus): 17
- selectivity index PTA (murine polyomavirus): 7
- EC50 (murine polyomavirus; [17]): 4.39 µg/mL (≈ 16.7 µM)
- EC50 (murine polyomavirus; [18]): 8.05 µg/mL (≈ 30.7 µM)
- EC50 (murine polyomavirus; [19]): 3.43 µg/mL (≈ 13.1 µM)
- EC50 (murine polyomavirus; [20]): 8.59 µg/mL (≈ 32.8 µM)
- EC50 (Cowpox virus (Brighton)): 5.64 µg/mL (≈ 21.5 µM)
- selectivity index SV40 PML-1 strain EK [2]: 8
- selectivity index SV40 PML-2 strain DAR [2]: 7
- selectivity index SV40 strain A2895 [2]: 8
- EC50 [2, 21]: 4.6 µg/mL (≈ 17.5 µM)
- EC50 [2, 22]: 5.05 µg/mL (≈ 19.3 µM)
- EC50 [2, 23]: 4.39 µg/mL (≈ 16.7 µM)
- CC50 (in vitro [3]): > 50 µg/mL
- EC50 [4]: 0.017 µg/mL (≈ 0.0648 µM)
- EC50 [5, 24]: 50 ng/mL (≈ 0.191 µM)
- EC50 [5, 25]: 80 ng/mL (≈ 0.305 µM)
- CC50 (in vitro [6]): 36.4 µg/mL (≈ 139 µM)
- EC50 [7, 26]: 93 ng/mL (≈ 0.355 µM)
- EC50 [7, 27]: 61 ng/mL (≈ 0.233 µM)
- CC50 (in vitro [8]): 58.4 µg/mL (≈ 223 µM)
- EC50 (Orf virus (NZ2)): 0.09 µg/mL (≈ 0.343 µM)

SMILES: CCCCCCCCCCCCCCCCOCCOP1(=O)CO[C@@H](Cn2cnc(N)nc2=O)CO1 (stereo partly drawn) [Compound 12, hexadecyloxyethyl ester of 1-{[(5S)-2-Hydroxy-2-oxido-1,4,2-dioxaphosphinan-5-yl]methyl}-5-azacytosine]
- EC50 (Vaccinia virus; [13]): < 0.032 µg/mL
- EC50 (Vaccinia virus; [14]): < 0.032 µg/mL
- EC50 (Vaccinia virus; [15]): < 0.032 µg/mL
- EC50 (Vaccinia virus; [16]): 0.072 µg/mL (≈ 0.136 µM)
- EC50 [1]: 0.36 µg/mL (≈ 0.678 µM)
- selectivity index 2PTA2 (murine polyomavirus): 33.8
- selectivity index LID-1 (murine polyomavirus): 21.3
- selectivity index MN/RDE Toronto (murine polyomavirus): 34.9
- selectivity index PTA (murine polyomavirus): 35.6
- EC50 (murine polyomavirus; [17]): 0.3 µg/mL (≈ 0.565 µM)
- EC50 (murine polyomavirus; [18]): 0.47 µg/mL (≈ 0.886 µM)
- EC50 (murine polyomavirus; [19]): 0.29 µg/mL (≈ 0.547 µM)
- EC50 (murine polyomavirus; [20]): 0.28 µg/mL (≈ 0.528 µM)
- EC50 (Cowpox virus (Brighton)): < 0.032 µg/mL
- selectivity index SV40 PML-1 strain EK [2]: 57.6
- selectivity index SV40 PML-2 strain DAR [2]: 38.7
- selectivity index SV40 strain A2895 [2]: 44.5
- EC50 [2, 21]: 0.15 µg/mL (≈ 0.283 µM)
- EC50 [2, 22]: 0.18 µg/mL (≈ 0.339 µM)
- EC50 [2, 23]: 0.16 µg/mL (≈ 0.302 µM)
- CC50 (in vitro [3]): 6 µg/mL (≈ 11.3 µM)
- EC50 [4]: 0.072 µg/mL (≈ 0.136 µM)
- EC50 [5, 24]: < 0.02 ng/mL
- EC50 [5, 25]: < 0.02 ng/mL
- EC50 [5, 28]: < 0.02 ng/mL
- EC50 [5, 29]: < 0.02 ng/mL
- CC50 (in vitro [6]): 7.1 µg/mL (≈ 13.4 µM)
- EC50 [7, 26]: < 0.02 ng/mL
- EC50 [7, 27]: < 0.02 ng/mL
- CC50 (in vitro [8]): 10 µg/mL (≈ 18.8 µM)
- EC50 (Orf virus (NZ2)): < 0.032 µg/mL

SMILES: CCCCCCCCCCCCCCCCCCOP1(=O)CO[C@@H](Cn2cnc(N)nc2=O)CO1 (stereo partly drawn) [Compound 15, octadecyl ester of 1-{[(5S)-2-hydroxy-2-oxido-1,4,2-dioxaphosphinan-5-yl]methyl}-5-azacytosine]
- CC50 (in vitro [3]): > 100 µg/mL
- EC50 [5, 25]: 63 ng/mL (≈ 0.122 µM)
- EC50 [7, 26]: 3.7 ng/mL (≈ 0.00719 µM)
- EC50 [7, 27]: 1.4 ng/mL (≈ 0.00272 µM)

SMILES: Nc1cnn(C[C@@H](CO)OCP(=O)(O)O)c(=O)n1 [HPMP-6-azaC analogue, (S)-1-[3-hydroxy-2-(phosphonomethoxy)propyl]-6-azacytosine]
- EC50 (Vaccinia virus; [13]): ≥ 79.3 µg/mL
- EC50 (Vaccinia virus; [14]): > 100 µg/mL
- EC50 (Vaccinia virus; [15]): ≥ 81.6 µg/mL
- EC50 (Vaccinia virus; [16]): > 100 µg/mL
- EC50 (Cowpox virus (Brighton)): > 100 µg/mL
- CC50 (in vitro [3]): > 50 µg/mL
- EC50 [5, 24]: 18400 ng/mL (≈ 65.7 µM)
- EC50 [5, 25]: 38200 ng/mL (≈ 136 µM)
- EC50 [5, 28]: 42000 ng/mL (≈ 150 µM)
- EC50 [5, 29]: 17000 ng/mL (≈ 60.7 µM)
- EC50 [7, 26]: 30000 ng/mL (≈ 107 µM)
- EC50 [7, 27]: 37300 ng/mL (≈ 133 µM)
- EC50 (Orf virus (NZ2)): ≥ 63.8 µg/mL

SMILES: Nc1ccn(C[C@@H](CO)OCP(=O)(O)O)c(=O)n1 [HPMPC, (S)-1-(3-hydroxy-2-phosphonylmethoxypropyl)cytosine, reference compound]
- EC50 (HSV-1 (Kos strain); 2 h, read-out: EC50 HSV-1 (Kos strain), Treatment from 2 h till end of experiment): 0.43 µg/mL (≈ 1.54 µM)
- EC50 (HSV-1 (Kos strain); read-out: EC50 HSV-1 (Kos strain), Pretreatment (−16 hours)): 1 µg/mL (≈ 3.58 µM)
- EC50 (HSV-1 (Kos strain); read-out: EC50 HSV-1 (Kos strain), Treatment 2-4 hours): 2.51 µg/mL (≈ 8.99 µM)
- EC50 (HSV-1 (Kos strain); read-out: EC50 HSV-1 (Kos strain), Treatment 2-6 hours): 1.1 µg/mL (≈ 3.94 µM)
- EC50 (HSV-1 (Kos strain); read-out: EC50 HSV-1 (Kos strain), Treatment 2-8 hours): 1 µg/mL (≈ 3.58 µM)
- EC50 (Vaccinia virus; [13]): 2.45 µg/mL (≈ 8.78 µM)
- EC50 (Vaccinia virus; [14]): 4.35 µg/mL (≈ 15.6 µM)
- EC50 (Vaccinia virus; [15]): 2.43 µg/mL (≈ 8.7 µM)
- EC50 (Vaccinia virus; [16]): 5.82 µg/mL (≈ 20.8 µM)
- EC50 [1]: 0.54 µg/mL (≈ 1.93 µM)
- EC50 (murine polyomavirus; [17]): 5.78 µg/mL (≈ 20.7 µM)
- EC50 (murine polyomavirus; [18]): 5.89 µg/mL (≈ 21.1 µM)
- EC50 (murine polyomavirus; [19]): 2.76 µg/mL (≈ 9.89 µM)
- EC50 (murine polyomavirus; [20]): 6.54 µg/mL (≈ 23.4 µM)
- CC50 (in vitro [9]): > 79 µg/mL
- Toxicity MCC (microscopy), HSB-2 cells (HSB-2 cells): 19 µg/mL
- EC50 (Cowpox virus (Brighton)): 8.43 µg/mL (≈ 30.2 µM)
- EC50 [2, 21]: 5.56 µg/mL (≈ 19.9 µM)
- EC50 [2, 22]: 5.87 µg/mL (≈ 21 µM)
- EC50 [2, 23]: 4.72 µg/mL (≈ 16.9 µM)
- EC50 ([10]; read-out: EC50 MCV 06/02): 0.76 µg/mL (≈ 2.72 µM)
- EC50 ([10]; read-out: EC50 MCV 06/03): 0.55 µg/mL (≈ 1.97 µM)
- EC50 ([10]; read-out: EC50 MCV 06/04): 0.55 µg/mL (≈ 1.97 µM)
- EC50 ([10]; read-out: EC50 MCV 06/06): 0.6 µg/mL (≈ 2.15 µM)
- CC50 (in vitro [3]): 68.6 µg/mL (≈ 246 µM)
- EC50 [4]: 0.16 µg/mL (≈ 0.573 µM)
- Toxicity MCC (microscopy), MOLT-3 cells (MOLT-3 cells): 32 µg/mL
- EC50 Vaccinia virus (Western Reserve) wild-type [11]: 3.1 µg/mL (≈ 11.1 µM)
- EC50 recombinant vaccinia virus 314 + 684 [11]: 39.5 µg/mL
- EC50 recombinant vaccinia virus 684 [11]: 14.8 µg/mL
- EC50 recombinant vaccinia virus A314T [11]: 22.2 µg/mL
- EC50 [5, 24]: 50 ng/mL (≈ 0.179 µM)
- EC50 [5, 25]: 200 ng/mL (≈ 0.716 µM)
- CC50 (in vitro [6]): 79.4 µg/mL (≈ 284 µM)
- Toxicity MCC (microscop) (HEL cells): >79 µg/mL
- EC50 [7, 26]: 200 ng/mL (≈ 0.716 µM)
- EC50 [7, 27]: 300 ng/mL (≈ 1.07 µM)
- EC50 ([12]; 2 h, read-out: EC50 Vaccinia (Lederle strain), Treatment from 2 h till end of experiment): 3.98 µg/mL (≈ 14.3 µM)
- EC50 ([12]; read-out: EC50 Vaccinia (Lederle strain), Pretreatment (−16 hours)): 5 µg/mL (≈ 17.9 µM)
- EC50 ([12]; read-out: EC50 Vaccinia (Lederle strain), Treatment 2-4 hours): 20 µg/mL (≈ 71.6 µM)
- EC50 ([12]; read-out: EC50 Vaccinia (Lederle strain), Treatment 2-6 hours): 9.06 µg/mL (≈ 32.5 µM)
- EC50 ([12]; read-out: EC50 Vaccinia (Lederle strain), Treatment 2-8 hours): 10 µg/mL (≈ 35.8 µM)
- CC50 (in vitro [8]): 84.3 µg/mL (≈ 302 µM)
- EC50 (Orf virus (NZ2)): 0.2 µg/mL (≈ 0.716 µM)
